Target: Olfr743 (Mus musculus, UniProt L7N1Y2)
Experiment: cell-based cAMP assay (HTRF), HEK293T co-transfected with Gαolf
Settings: 300 μM 2-acetonaphthone
Text: The activity of candidate mouse receptors Olfr740 (SEQ ID NO: 1 and SEQ ID NO: 2), Olfr743 (SEQ ID NO: 5 and SEQ ID NO: 6), and Olfr746 (SEQ ID NO: 37 and SEQ ID NO: 38) to both indole and skatole malodors were confirmed in cell-based cAMP assays. In FIGS. 5A and 5B, FLAG Rho-tagged (SEQ ID 18) Olfr743 (SEQ ID NO: 6) and Olfr740 (SEQ ID NO: 2) cDNA sequences were co-transfected with Gαolf (SEQ ID NO: 21) and exposed to increasing concentrations of indole (left) or skatole (right). FIGS. 5C and 5D are repeat experiments showing similar activity of Olfr740 (SEQ ID NO: 2) with Olfr743 (SEQ ID NO: 6) with indole and skatole. In FIG. 5E, the FLAG Rho-tagged (SEQ ID 18) Olfr746 (SEQ ID NO: 38) cDNA sequence was co-transfected with Gαolf (SEQ ID NO: 21) and exposed to increasing concentrations of indole or skatole. Odorant-induced activity was detected by measuring cAMP levels in the cytosol using the HTRF approach (CisBio kit). […] Co-transfection of HEK cells with Gαolf (SEQ ID NO: 21) alone (no receptor) were used as controls for non-specific activity (control). Activity is defined as the baseline corrected HTRF ratios normalized to the highest signal in the experiment. […] All three receptors show specific dose dependent activity to the malodor compounds and, as such, validate the process for identifying receptors for these compounds. Mouse receptors Olfr740 (SEQ ID NO: 1 and SEQ ID NO: 2) and Olfr743 (SEQ ID NO: 5 and SEQ ID NO: 6) were identified from isolated olfactory neurons that responded to both indole and skatole. Mouse receptor Olfr746 (SEQ ID NO: 37 and SEQ ID NO: 38) was identified in silico by database mining using Olfr740 (SEQ ID NO: 2) and Olfr743 (SEQ ID NO: 6) as query sequences. The receptors are modified at their N-terminus with the FLAG tag and the first 20 amino acids of the bovine rhodopsin receptor (SEQ ID 18), transiently expressed in HEK 293T cells, and stimulated separately with indole and skatole to confirm their identity as bona fide indole/skatole receptors. Co-expression of the human G alpha subunit Gαolf (SEQ ID NO: 21) activates the Gs transduction pathway that leads to an internal cAMP increase upon binding to the appropriate ligand.
Once identified using the procedure outlined herein, the resulting malodor receptor cell lines can be used to screen chemical libraries for compounds that modulate their activity and possibly human perception. This experiment was performed under the same conditions as in Example 4. Cells transfected with Rho-tagged (SEQ ID NO: 18) Olfr743 (SEQ ID NO: 6) were exposed to increasing concentrations of indole in the presence or absence of 300 μM 2-actetonaphthone. […] In the presence of the antagonist compound, a rightward shift of in the dose-response curve is observed resulting in a 4 fold increase in the EC50 to indole. Activity is defined as the baseline corrected HTRF ratios normalized to the highest signal in the experiment.

Sequence of Olfr743 (P38405 2-381): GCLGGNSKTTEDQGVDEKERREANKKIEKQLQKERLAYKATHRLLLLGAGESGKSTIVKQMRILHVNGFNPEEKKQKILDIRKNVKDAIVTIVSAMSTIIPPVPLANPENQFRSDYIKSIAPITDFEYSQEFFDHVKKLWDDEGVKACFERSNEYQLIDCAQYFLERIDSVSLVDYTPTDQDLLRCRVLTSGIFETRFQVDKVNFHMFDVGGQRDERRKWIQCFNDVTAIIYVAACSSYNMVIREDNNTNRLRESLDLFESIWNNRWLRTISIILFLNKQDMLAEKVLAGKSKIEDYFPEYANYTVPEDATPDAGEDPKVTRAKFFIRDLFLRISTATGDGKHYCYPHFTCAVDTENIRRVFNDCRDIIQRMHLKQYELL
Sequence of Olfr743 (L7N1Y2 entry or part of it): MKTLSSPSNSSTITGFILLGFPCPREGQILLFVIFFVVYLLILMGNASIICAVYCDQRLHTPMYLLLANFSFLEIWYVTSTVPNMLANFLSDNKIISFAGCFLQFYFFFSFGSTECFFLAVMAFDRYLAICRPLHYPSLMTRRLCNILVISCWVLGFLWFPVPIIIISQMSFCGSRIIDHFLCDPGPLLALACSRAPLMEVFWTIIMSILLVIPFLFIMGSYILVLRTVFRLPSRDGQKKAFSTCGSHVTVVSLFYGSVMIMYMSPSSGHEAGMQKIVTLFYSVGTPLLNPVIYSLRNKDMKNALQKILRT

With `CC(=O)c1ccc2ccccc2c1` [2-acetonaphthone] the “inhibition of Olfr743 activity to indole” value was “inhibits the activity” and the “increase in the EC50 to indole” value (rightward shift of dose-response curve) was 4 fold.
